# Measurements taken from patent US9850283B2, “Macrocyclic inhibitors of the PD-1/PD-L1 and CD80(B7-1)/PD-L1 protein/protein interactions” (BRISTOL-MYERS SQUIBB COMPANY, priority 2013, dated 2017).
# Where two headings read alike, the source gives them in different places. Positions of bridges follow the written chain, without caps; N, C: chain ends. Non-standard residues stand in square brackets, D forms with d. Residues, ends and D or L forms follow the SMILES beside them. ξ: configuration not given here. Phe(4-Cl) = N[C@@H](Cc1ccc(Cl)cc1)C(=O)O; 1Nal = N[C@@H](Cc1cccc2ccccc12)C(=O)O; NMeF = CN[C@@H](Cc1ccccc1)C(=O)O; NMeNle = CCCC[C@H](NC)C(=O)O; ξY = NC(Cc1ccc(O)cc1)C(=O)O; NMeA = CN[C@@H](C)C(=O)O; ξP = O=C(O)C1CCCN1; Sar = CNCC(=O)O
# Experiments:
# Hu PD-L1/PD-1 = Hu PD-L1/PD-1 (Homo sapiens, UniProt Q9NZQ7); experiment: Cell binding assay Hu PD-L1/PD-1 (Tables 11-13, cell line not given); assay type: cell-based
# Sequence of Hu PD-L1/PD-1 (Q9NZQ7 19-290): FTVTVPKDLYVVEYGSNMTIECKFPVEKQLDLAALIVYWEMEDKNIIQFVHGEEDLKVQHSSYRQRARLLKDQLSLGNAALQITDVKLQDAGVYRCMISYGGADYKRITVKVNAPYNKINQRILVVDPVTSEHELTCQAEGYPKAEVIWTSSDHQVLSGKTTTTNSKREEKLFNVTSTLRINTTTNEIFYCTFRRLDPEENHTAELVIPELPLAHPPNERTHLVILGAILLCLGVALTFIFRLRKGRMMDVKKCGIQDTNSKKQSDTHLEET
# Description: The ability of the macrocyclic peptides of the present disclosure to bind to Jurkat, mouse B cell line (LK35.2), and a human lung adenocarcinoma cell line (L2987) was investigated. Jurkat-PD-1 Cell Binding Assay. Phycoerythrin (PE) was covalently linked to the Ig epitope tag of human PD-L1-Ig and fluorescently-labeled PD-L1-Ig was used for binding studies with a Jurkat cell line over-expressing human PD-1 (Jurkat-PD-1). […] Cells were washed 3× in dPBS. Cells were resuspended in 200 μl of dPBS and binding was measured by flow cytometry. LK35.2-hPD-L1 Cell Binding Assay. Phycoerythrin (PE) was covalently linked to the Ig eptitope tag of human PD-1-Ig and fluorescently-labeled PD-1-Ig was used for binding studies with a mouse B cell line (LK35.2) stably over-expressing human PD-L1 (LK35.2-hPD-L1). Briefly, […] LK35.2-hPD-L1 cells were pre-incubated with inhibitor for 15 m in a 30 μl volume of RPMI supplemented with 2% fetal calf serum. 20 μl of PE-labeled PD-1-Ig (2 nM final), diluted in RPMI supplemented with 2% fetal calf serum, was dispensed on top of cells and inhibitor and binding was allowed to take place for 1 h at room temperature. Cells were washed 3× in dPBS. Cells were resuspended in 200 μl of dPBS and binding was measured by flow cytometry. L2987 Cellomics Cell Binding Assay. Phycoerythrin (PE) was covalently linked to the Ig eptitope tag of human PD-1-Ig and fluorescently-labeled PD-1-Ig was used for binding studies with a human lung adenocarcinoma cell line (L2987) which naturally expresses PD-L1. […] The following day, inhibitors were diluted in serum-free DMEM and 25 μl was dispensed on top of cells. […] Samples were incubated for 1 h at 37° C. followed by 2 washes in dPBS and fixation for 30 m with 4% paraformaldehyde. Samples were further washed 2× in dPBS. Hoechst (final 1 μg/ml) was added to final wash to stain nuclei. Plates were processed using a Cellomics […]®.
# Human PD-L1/PD-1 = biological target: T1, Human PD-L1/PD-1 (Homo sapiens, UniProt Q9NZQ7); experiment: HTRF PD-1-Ig/PD-L1-His binding assay (human PD-L1); conditions: read-out: HTRF Human PD-L1/PD-1 Binding Assay IC50
# T1 construct: made in house; host or cells: HEK293T
# T1 sequence (Q9NZQ7 with tags, fused parts or gaps): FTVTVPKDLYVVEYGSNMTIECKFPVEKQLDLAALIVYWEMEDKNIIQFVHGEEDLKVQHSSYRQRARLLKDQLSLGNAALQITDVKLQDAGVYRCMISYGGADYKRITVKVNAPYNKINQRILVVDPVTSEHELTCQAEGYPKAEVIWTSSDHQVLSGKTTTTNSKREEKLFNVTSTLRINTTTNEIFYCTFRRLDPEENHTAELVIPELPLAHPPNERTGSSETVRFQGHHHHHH
# Outline: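 Readout: time-resolved FRET between Eu cryptate-labeled anti-Ig (1 nM final) and APC-labeled anti-His (20 nM final) antibodies. These detect interaction of Fc-fused PD-1 with His-tagged human PD-L1 in dPBS containing 0.1% BSA and 0.05% Tween-20.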
# [1] = Table 13, Compound No. 71 series
# [2] = Table 9, Compound No. 71 variant macrocyclic peptides
# [3] = Table 8, Compound No. 1 variant macrocyclic peptides
Compound,IC50 (Hu PD-L1/PD-1; [1]),IC50 (Human PD-L1/PD-1; [2]),IC50 (Hu PD-L1/PD-1),IC50 (Human PD-L1/PD-1; [3]),other results
"CCCC[C@H]1C(=O)N(C)CC(=O)N[C@@H](CC(=O)O)C(=O)N[C@@H](C(C)C)C(=O)N(C)[C@@H](C)C(=O)N[C@@H](Cc2ccc(O)cc2)C(=O)N(C)CC(=O)N[C@@H](Cc2c[nH]c3ccccc23)C(=O)N[C@@H](Cc2ccc(O)cc2)C(=O)N[C@@H](CC(C)C)C(=O)N[C@H](C(=O)NCC(N)=O)CSCC(=O)N[C@@H](Cc2ccccc2)C(=O)N(C)[C@@H](Cc2ccccc2)C(=O)N1C [Compound No. 81] (HELM PEPTIDE1{[O=C(C[*:3])[*:2]].F.[meF].[CCCC[C@@H](C(=O)[*:2])N(C)[*:1]].[Sar].D.V.[meA].Y.[Sar].W.Y.L.C.G.[am]}$PEPTIDE1,PEPTIDE1,1:R3-14:R3$$$V2.0)",> 10000 nM,> 10000 nM,,,
CCCC[C@H]1C(=O)N(C)[C@@H](CCCC)C(=O)N[C@@H](CCCNC(=N)N)C(=O)N[C@H](C(=O)NCC(N)=O)CSCC(=O)N[C@@H](Cc2ccccc2)C(=O)N(C)[C@@H](C)C(=O)N[C@@H](CC(N)=O)C(=O)N2CCC[C@H]2C(=O)N[C@@H](Cc2cnc[nH]2)C(=O)N[C@@H](CC(C)C)C(=O)N2CCC[C@H]2C(=O)N[C@@H](Cc2c[nH]c3ccccc23)C(=O)N[C@@H](CO)C(=O)N[C@@H](Cc2c[nH]c3ccccc23)C(=O)N1C [Compound No. 55] ({CH2CO}-F[NMeA]NPHLPWSW[NMeNle][NMeNle]RCG-NH2; thioether N-14),,,3 nM,4 nM,
"CCCC[C@H]1C(=O)N(C)[C@@H](C)C(=O)N[C@@H](CC(=O)O)C(=O)N[C@@H](C(C)C)C(=O)N(C)[C@@H](Cc2ccccc2)C(=O)N[C@@H](Cc2ccc(O)cc2)C(=O)N(C)CC(=O)N[C@@H](Cc2c[nH]c3ccccc23)C(=O)N[C@@H](Cc2ccc(O)cc2)C(=O)N[C@@H](CC(C)C)C(=O)N[C@H](C(=O)NCC(N)=O)CSCC(=O)N[C@@H](Cc2ccccc2)C(=O)N(C)[C@@H](Cc2ccccc2)C(=O)N1C [Compound No. 77] (HELM PEPTIDE1{[O=C(C[*:3])[*:2]].F.[meF].[CCCC[C@@H](C(=O)[*:2])N(C)[*:1]].[meA].D.V.[meF].Y.[Sar].W.Y.L.C.G.[am]}$PEPTIDE1,PEPTIDE1,1:R3-14:R3$$$V2.0)",16 nM,24 nM,,,
CCCC[C@H]1C(=O)N(C)[C@@H](CCCC)C(=O)N[C@@H](CCCNC(=N)N)C(=O)N[C@H](C(=O)NCC(N)=O)CSCC(=O)N[C@@H](Cc2ccc(Cl)cc2)C(=O)N(C)[C@@H](C)C(=O)N[C@@H](CC(N)=O)C(=O)N2CCC[C@H]2C(=O)N[C@@H](Cc2cnc[nH]2)C(=O)N[C@@H](CC(C)C)C(=O)N(C)CC(=O)N[C@@H](Cc2c[nH]c3ccccc23)C(=O)N[C@@H](CO)C(=O)N[C@@H](Cc2c[nH]c3ccccc23)C(=O)N1C [Compound No. 33] ({CH2CO}-[Phe(4-Cl)][NMeA]NPHL[Sar]WSW[NMeNle][NMeNle]RCG-NH2; thioether N-14),,,7 nM,9 nM,
CCCC[C@H]1C(=O)N(C)[C@@H](CCCC)C(=O)N[C@@H](CCCNC(=N)N)C(=O)N[C@@H](C(=O)NCC(N)=O)CSCC(=O)N[C@@H](Cc2cccc3ccccc23)C(=O)N(C)[C@@H](C)C(=O)N[C@@H](CC(N)=O)C(=O)N2CCC[C@H]2C(=O)N[C@@H](Cc2cnc[nH]2)C(=O)N[C@@H](CC(C)C)C(=O)N(C)CC(=O)N[C@@H](Cc2c[nH]c3ccccc23)C(=O)N[C@@H](CO)C(=O)N[C@@H](Cc2c[nH]c3ccccc23)C(=O)N1C [Compound No. 27] ({CH2CO}-[1Nal][NMeA]NPHL[Sar]WSW[NMeNle][NMeNle]R[dC]G-NH2; thioether N-14),,,28 nM,20 nM,
"CCCC[C@H]1C(=O)N(C)CC(=O)N[C@@H](CC(=O)O)C(=O)N[C@@H](C(C)C)C(=O)N(C)[C@@H](Cc2ccccc2)C(=O)N[C@@H](Cc2ccc(O)cc2)C(=O)N(C)CC(=O)N[C@@H](Cc2c[nH]c3ccccc23)C(=O)N[C@@H](Cc2ccc(O)cc2)C(=O)N[C@@H](C)C(=O)N[C@H](C(=O)NCC(N)=O)CSCC(=O)N[C@@H](Cc2ccccc2)C(=O)N(C)[C@@H](Cc2ccccc2)C(=O)N1C [Compound No. 87] (HELM PEPTIDE1{[O=C(C[*:3])[*:2]].F.[meF].[CCCC[C@@H](C(=O)[*:2])N(C)[*:1]].[Sar].D.V.[meF].Y.[Sar].W.Y.A.C.G.[am]}$PEPTIDE1,PEPTIDE1,1:R3-14:R3$$$V2.0)",73 nM,25 nM,,,
CCCC[C@H]1C(=O)N(C)[C@@H](CCCC)C(=O)N[C@@H](CCCNC(=N)N)C(=O)N[C@H](C(=O)NCC(N)=O)CSCC(=O)N[C@@H](Cc2ccc(O)cc2)C(=O)N(C)[C@@H](C)C(=O)N[C@@H](CC(N)=O)C(=O)N2CCC[C@H]2C(=O)N[C@@H](Cc2cnc[nH]2)C(=O)N[C@@H](CC(C)C)C(=O)N(C)CC(=O)N[C@@H](Cc2c[nH]c3ccccc23)C(=O)N[C@@H](CO)C(=O)N[C@@H](Cc2c[nH]c3ccccc23)C(=O)N1C [Compound No. 30],,,3 nM,5 nM,
CCCC[C@H]1C(=O)N[C@@H](CCCNC(=N)N)C(=O)N[C@H](C(=O)NCC(N)=O)CSCC(=O)N[C@@H](Cc2ccccc2)C(=O)N(C)[C@@H](C)C(=O)N[C@@H](CC(N)=O)C(=O)N2CCCC2C(=O)N[C@@H](Cc2cnc[nH]2)C(=O)N[C@@H](CC(C)C)C(=O)N(C)CC(=O)N[C@@H](Cc2c[nH]c3ccccc23)C(=O)N[C@@H](CO)C(=O)N[C@@H](Cc2c[nH]c3ccccc23)C(=O)N(C)[C@@H](C)C(=O)N1C (stereo partly shown) [Compound No. 19] ({CH2CO}-F[NMeA]N[ξP]HL[Sar]WSW[NMeA][NMeNle]RCG-NH2; thioether N-14),,,134 nM,33 nM,
CCCC[C@H]1C(=O)N(C)[C@@H](CCCC)C(=O)N[C@@H](CCCNC(=N)N)C(=O)N[C@H](C(=O)NCC(N)=O)CSCC(=O)N[C@@H](Cc2ccccc2)C(=O)N(C)[C@@H](C)C(=O)N[C@@H](CC(N)=O)C(=O)N2CCCC2C(=O)N[C@@H](Cc2cnc[nH]2)C(=O)N[C@@H](CC(C)C)C(=O)N(C)CC(=O)N[C@@H](Cc2c[nH]c3ccccc23)C(=O)N[C@@H](C)C(=O)N[C@@H](Cc2c[nH]c3ccccc23)C(=O)N1C (stereo partly shown) [Compound No. 16] ({CH2CO}-F[NMeA]N[ξP]HL[Sar]WAW[NMeNle][NMeNle]RCG-NH2; thioether N-14),,,13 nM,5 nM,
CCCC[C@H]1C(=O)N(C)[C@@H](CCCC)C(=O)N[C@@H](CC(C)C)C(=O)N[C@H](C(=O)NCC(N)=O)CSCC(=O)N[C@@H](Cc2ccccc2)C(=O)N(C)[C@@H](C)C(=O)N[C@@H](CC(N)=O)C(=O)N2CCC[C@H]2C(=O)N[C@@H](Cc2c[nH]cn2)C(=O)N[C@@H](CC(C)C)C(=O)N[C@@H](CO)C(=O)N[C@@H](Cc2c[nH]c3ccccc23)C(=O)N[C@@H](CCCNC(=N)N)C(=O)N[C@@H](Cc2c[nH]c3ccccc23)C(=O)N1C [Compound No. 4] ({CH2CO}-F[NMeA]NPHLSWRW[NMeNle][NMeNle]LCG-NH2; thioether N-14),,,,,IC50 (Hu PD-L1/PD-1; Table 11): 15 nM; IC50 (Human PD-L1/PD-1; Table 6): 15 nM
CCCC[C@H]1C(=O)N(C)CC(=O)N[C@@H](CC(=O)O)C(=O)N[C@@H](C(C)C)C(=O)N(C)[C@@H](Cc2ccccc2)C(=O)N[C@@H](Cc2ccc(O)cc2)C(=O)N(C)CC(=O)N[C@@H](Cc2c[nH]c3ccccc23)C(=O)NC(Cc2ccc(O)cc2)C(=O)N[C@@H](CC(C)C)C(=O)N[C@H](C(=O)NCC(N)=O)CSCC(=O)N[C@@H](Cc2ccccc2)C(=O)N[C@@H](Cc2ccccc2)C(=O)N1C (stereo partly shown) [Compound No. 74] ({CH2CO}-FF[NMeNle][Sar]DV[NMeF]Y[Sar]W[ξY]LCG-NH2; thioether N-13),> 10000 nM,> 10000 nM,,,
